Experimental data taken from ChEMBL document CHEMBL3886705, “Cyanomethylpyrazole carboxamides as janus kinase inhibitors” (2016).
pIC50: −log10 of the molar value. Several values for one entry are separate records, joined by “and”; a condition that tells them apart may be missing. Equal values may be shown once.

How the values were obtained:
[1] = target: Tyrosine-protein kinase JAK2 (Homo sapiens, UniProt O60674)
[2] = target: Tyrosine-protein kinase JAK1 (Homo sapiens, UniProt P23458); assay: Subsequent reagent additions employed an Agilent Bravo.
Tyrosine-protein kinase JAK1, sequence (P23458 whole entry): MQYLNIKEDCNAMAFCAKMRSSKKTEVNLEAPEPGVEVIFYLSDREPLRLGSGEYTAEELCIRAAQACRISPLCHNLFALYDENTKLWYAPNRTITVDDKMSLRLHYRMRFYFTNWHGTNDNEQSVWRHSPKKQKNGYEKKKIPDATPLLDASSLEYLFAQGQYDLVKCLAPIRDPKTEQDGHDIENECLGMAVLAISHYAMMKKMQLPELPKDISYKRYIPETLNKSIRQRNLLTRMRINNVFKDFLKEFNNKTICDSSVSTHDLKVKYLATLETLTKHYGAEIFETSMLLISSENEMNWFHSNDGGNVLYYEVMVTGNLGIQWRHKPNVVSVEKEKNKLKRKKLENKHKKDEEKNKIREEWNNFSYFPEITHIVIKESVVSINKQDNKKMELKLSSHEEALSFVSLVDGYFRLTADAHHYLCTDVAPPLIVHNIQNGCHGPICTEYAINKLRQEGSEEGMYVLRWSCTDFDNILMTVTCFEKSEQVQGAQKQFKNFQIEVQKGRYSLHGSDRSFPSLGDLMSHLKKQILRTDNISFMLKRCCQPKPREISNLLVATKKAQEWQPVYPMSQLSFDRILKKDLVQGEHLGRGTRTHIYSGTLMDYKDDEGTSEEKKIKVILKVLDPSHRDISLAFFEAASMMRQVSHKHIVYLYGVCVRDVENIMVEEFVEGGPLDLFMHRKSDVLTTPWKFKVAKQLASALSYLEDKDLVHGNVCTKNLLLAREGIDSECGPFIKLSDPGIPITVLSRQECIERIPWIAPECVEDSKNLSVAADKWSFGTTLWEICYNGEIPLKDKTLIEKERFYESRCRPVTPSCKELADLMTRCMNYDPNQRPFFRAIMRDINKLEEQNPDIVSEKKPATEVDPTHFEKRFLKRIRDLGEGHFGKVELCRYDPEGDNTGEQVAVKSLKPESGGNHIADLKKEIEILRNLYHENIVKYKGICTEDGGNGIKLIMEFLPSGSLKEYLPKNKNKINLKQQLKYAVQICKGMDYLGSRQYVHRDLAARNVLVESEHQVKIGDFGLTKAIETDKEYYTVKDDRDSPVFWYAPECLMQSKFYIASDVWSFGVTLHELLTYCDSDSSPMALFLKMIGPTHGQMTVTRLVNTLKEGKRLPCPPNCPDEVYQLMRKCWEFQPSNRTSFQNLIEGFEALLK

Tyrosine-protein kinase JAK2, sequence (O60674 whole entry): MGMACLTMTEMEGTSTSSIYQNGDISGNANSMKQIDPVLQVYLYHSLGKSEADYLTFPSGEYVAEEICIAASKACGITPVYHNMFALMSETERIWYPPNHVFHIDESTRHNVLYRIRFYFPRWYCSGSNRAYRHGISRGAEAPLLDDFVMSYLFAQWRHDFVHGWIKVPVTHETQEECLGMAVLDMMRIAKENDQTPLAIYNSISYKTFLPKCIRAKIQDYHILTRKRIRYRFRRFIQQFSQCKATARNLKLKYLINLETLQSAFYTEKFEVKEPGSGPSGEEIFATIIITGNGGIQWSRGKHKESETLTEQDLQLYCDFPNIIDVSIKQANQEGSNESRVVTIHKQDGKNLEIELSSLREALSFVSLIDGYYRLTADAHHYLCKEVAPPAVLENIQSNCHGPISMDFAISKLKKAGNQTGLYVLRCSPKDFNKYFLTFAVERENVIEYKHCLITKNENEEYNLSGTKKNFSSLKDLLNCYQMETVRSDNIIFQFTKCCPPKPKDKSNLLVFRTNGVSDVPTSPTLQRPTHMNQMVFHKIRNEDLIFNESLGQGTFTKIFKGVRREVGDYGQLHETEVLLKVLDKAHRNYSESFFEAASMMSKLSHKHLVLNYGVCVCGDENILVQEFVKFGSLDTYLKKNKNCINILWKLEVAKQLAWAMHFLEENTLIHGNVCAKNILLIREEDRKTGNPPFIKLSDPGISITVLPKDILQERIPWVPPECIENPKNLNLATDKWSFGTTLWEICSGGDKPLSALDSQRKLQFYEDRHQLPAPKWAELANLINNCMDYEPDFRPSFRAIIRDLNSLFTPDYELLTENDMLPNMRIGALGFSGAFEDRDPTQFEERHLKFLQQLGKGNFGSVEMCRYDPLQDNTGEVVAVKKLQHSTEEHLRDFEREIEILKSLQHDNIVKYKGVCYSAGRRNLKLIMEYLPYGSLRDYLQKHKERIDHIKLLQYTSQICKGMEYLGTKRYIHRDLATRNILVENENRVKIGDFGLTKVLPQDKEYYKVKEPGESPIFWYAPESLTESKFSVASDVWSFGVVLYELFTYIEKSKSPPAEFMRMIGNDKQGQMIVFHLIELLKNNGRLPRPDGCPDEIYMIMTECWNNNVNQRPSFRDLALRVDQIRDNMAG

Row | pIC50 [1] | pIC50 [2] | Compound
1 | 7.48 | 9.00 | CC(C)(C)OC(=O)N1CCC(CC#N)(n2cc(C(N)=O)c(Nc3cc(Cl)nc(Cl)c3)n2)CC1
2 | < 5.83 and 6.79 |  | N#CCC1(n2cc(C(N)=O)c(Nc3ccnc(F)c3)n2)CCC(N)CC1 (stereo not given)
3 | 8.70 | 9.15 | CN(C)C(=O)c1ccc(Nc2nn(C3(CC#N)CCN(C(=O)OC(C)(C)C)CC3)cc2C(N)=O)cc1
